Test results from article PMC7277387, “Tailoring Uptake Efficacy of HSV-1 gD Tailoring Uptake Efficacy of Hsv-1 GD Derived Carrier Peptides” (Biomolecules, 2020).

What was measured:
[1] = Secondary structure of acetylated peptides by far-UV ECD spectroscopy; assay type: physicochemical; details: acetylated peptide; for α-helix fraction (PEPFIT): far-UV ECD, PEPFIT fit
Procedure: ECD spectra of acetylated HSV peptides were recorded using a Jasco J-810 and Jasco J-715 spectropolarimeter (Jasco Corporation, Tokyo, Japan) in the λ = 180–270 nm wavelength range using a 0.02 or a 0.1 cm path length quartz cell at room temperature, under constant nitrogen flush with continuous scanning mode. All spectra reported here were obtained as an average of three or five individual scans and corrected with the solvent ECD spectra. The J-810 equipment was calibrated with ammonium α-10-camphor-sulfonate. The samples were dissolved in trifluoroethanol (TFE) (Sigma), distilled water and a 1:1 (v/v) mixture of TFE:water. The solution concentration was in the range of 0.5–0.7 mg/mL (J-810) or ~0.14 mg/mL (J-715) for peptide amides. ECD band intensities are expressed in mean residual molar ellipticity unit. The percentage of the different conformational elements contributing to the ECD spectra was calculated by the MS Excel version of the PEPFIT program developed originally by Reed and Reed. The algorithm estimates the percentage of secondary contents by fitting experimental ECD data to the combination of reference spectra. The best fit is defined by the R^2 value, where an R^2 = 1 corresponds to a perfect match.
The helical content of the peptides in different solvents was also estimated employing the simple equation formulated by Chen and Yang: fH = -([Θ]222 + 2340)/30,300 where fH the fraction of helix and [Θ]222 is the measured mean residual ellipticity at 222 nm. It seems that the helical fractions obtained correlate favourably with the results of the curve fitting procedure (Table 2). […]

[2] = assay type: physicochemical; details: 1 mg/mL in serum-free DMEM, 37 °C, samples at 0, 3, 6 and 24 h, RP-HPLC C18, A220
Procedure: Before the cellular uptake studies the stability of the Cf-labelled synthetic peptides was determined. Peptides were dissolved at 1 mg/mL concentration in serum-free DMEM medium (Lonza, Basel, Switzerland), and incubated at 37 °C for 24 h. Samples for RP-HPLC (Knauer, Berlin, Germany) were taken at 0, 3, 6 and 24 h. Phenomenex Luna C18 column (5 μm, 300 Å, 4.6 mm × 250 mm) (Gen-Lab Ltd., Budapest, Hungary) was applied with a gradient of 0–5 min 5% B eluent elevated to 55% B during 25 min, where eluent A: 0.1% TFA/water, eluent B: 0.1% TFA/acetonitrile–water 80:20 (v/v).
Figure S12. Stability study of (a) Cf-(236-255) and (b) Cf-(228-247), dissolved in DMEM serum free medium and incubated at 37 °C, followed by RP-HPLC. Samples for RP-HPLC (Knauer, Berlin, Germany) were taken at 0, 3, 6 and 24 hrs. Phenomenex Luna C18 column (5 μm, 300 Å, 4.6 mm × 250 mm) was applied with a gradient of 0-5 min 5% eluent B elevated to 55% B during 25 min, where eluent A: 0.1% TFA / water, eluent B: 0.1% TFA / acetonitrile –water 80:20 (v/v). Control: DMEM serum free medium. In case of Cf-(236-255) evaporation during the incubation caused increasing peptide peaks. Both peptides contain oxidation sensitive Trp residue. Cf -(236-255) was stable even after 24 h, the rising intensity of the peak representing the peptide is due to evap oration during the […]
to be stable during this interval. […]

[3] = system: SH-SY5Y neuroblastoma cells; test: Cellular uptake of Cf-labelled peptides by flow cytometry; details: for cellular uptake (in words): Figure S19

^-1 GKYALADASLKMADPNRF^19 [acetylated HSV-1 gD -1–19 peptide amide for ECD]
disordered fraction (PEPFIT) ([1]; H2O): 64% | turn fraction (PEPFIT) ([1]; H2O): 24% | β-sheet fraction (PEPFIT) ([1]; H2O): 4% | α-helix fraction (PEPFIT) ([1]; H2O, room temperature): 8% | disordered fraction (PEPFIT) ([1]; H2O:TFE 1:1 (v/v)): 10% | turn fraction (PEPFIT) ([1]; H2O:TFE 1:1 (v/v)): 40% | β-sheet fraction (PEPFIT) ([1]; H2O:TFE 1:1 (v/v)): 0% | α-helix fraction (PEPFIT) ([1]; H2O:TFE 1:1 (v/v)): 50% | disordered fraction (PEPFIT) ([1]; TFE): 0% | turn fraction (PEPFIT) ([1]; TFE): 30% | β-sheet fraction (PEPFIT) ([1]; TFE): 0% | α-helix fraction (PEPFIT) ([1]; TFE): 70%

CC[C@H](C)[C@H](NC(=O)[C@H](CCCCN)NC(=O)[C@H](CC(C)C)NC(=O)c1ccc2c(c1)C(=O)OC21c2ccc(O)cc2Oc2cc(O)ccc21)C(=O)N[C@@H](C)C(=O)NCC(=O)N[C@@H](Cc1c[nH]c2ccccc12)C(=O)N[C@@H](Cc1c[nH]cn1)C(=O)NCC(=O)N1CCC[C@H]1C(=O)N[C@@H](CCCCN)C(=O)N[C@@H](C)C(=O)N1CCC[C@H]1C(=O)N[C@@H](Cc1ccc(O)cc1)C(=O)N[C@H](C(=O)N[C@@H](CO)C(=O)N[C@H](C(=O)N[C@@H](CC(C)C)C(=O)N[C@@H](CC(C)C)C(=O)N1CCC[C@H]1C(=O)N1CCC[C@H]1C(N)=O)[C@@H](C)O)[C@@H](C)O [Cf-(236–255)]
stability of the intact peptide [2]: stable even

Cf-^219M*LPRFIPENQRTVAVYSLKI^238 [Cf-(219–238)]
percentage of Cf-positive live cells ([3]; c = 2 μM, 3 h): 15–20%

Cf-TKPKGTKPKG [OT10]
cellular uptake (in words) ([3]; c = 10 µM, compared with Cf-HSV peptides): did not reach the level of internalisation of HSV peptides even with moderate uptake level | cellular uptake (in words) ([3]; c = 50 µM): effective cellular uptake, though not reaching 100%

CC[C@H](C)[C@H](NC(=O)[C@H](CCCCN)NC(=O)[C@H](CC(C)C)NC(=O)[C@H](CO)NC(=O)[C@H](Cc1ccc(O)cc1)NC(=O)[C@@H](NC(=O)[C@H](C)NC(=O)[C@@H](NC(=O)[C@@H](NC(=O)[C@H](CCCNC(=N)N)NC(=O)[C@H](CCC(N)=O)NC(=O)c1ccc2c(c1)C(=O)OC21c2ccc(O)cc2Oc2cc(O)ccc21)[C@@H](C)O)C(C)C)C(C)C)C(=O)N[C@@H](C)C(=O)NCC(=O)N[C@@H](Cc1c[nH]c2ccccc12)C(=O)N[C@@H](Cc1c[nH]cn1)C(=O)NCC(=O)N1CCC[C@H]1C(=O)N[C@@H](CCCCN)C(=O)N[C@@H](C)C(=O)N1CCC[C@H]1C(N)=O [Cf-(228–247)]
stability of the intact peptide [2]: decreased intensity of the intact peptide
